Data reported in ChEMBL document CHEMBL4038296, “A bromopyrrole-containing diterpene alkaloid from the Okinawan marine sponge Agelas nakamurai activates the insulin pathway in Huh-7 human hepatoma cells by inhibiting protein tyrosine phosphatase 1B” (Bioorg Med Chem Lett, 2017).
Calls of active or inactive are those of the source. No cut-off for these calls is given here.

Tests used:
[1] = target: T1, Tyrosine-protein phosphatase non-receptor type 1 (Homo sapiens, UniProt P18031); test: Inhibition of human recombinant PTP1B (1 to 322 residues) expressed in Escherichia coli using pNPP as substrate preincubated for 10 mins followed by substrate addition measured after 30 mins
T1 sequence (P18031 whole entry): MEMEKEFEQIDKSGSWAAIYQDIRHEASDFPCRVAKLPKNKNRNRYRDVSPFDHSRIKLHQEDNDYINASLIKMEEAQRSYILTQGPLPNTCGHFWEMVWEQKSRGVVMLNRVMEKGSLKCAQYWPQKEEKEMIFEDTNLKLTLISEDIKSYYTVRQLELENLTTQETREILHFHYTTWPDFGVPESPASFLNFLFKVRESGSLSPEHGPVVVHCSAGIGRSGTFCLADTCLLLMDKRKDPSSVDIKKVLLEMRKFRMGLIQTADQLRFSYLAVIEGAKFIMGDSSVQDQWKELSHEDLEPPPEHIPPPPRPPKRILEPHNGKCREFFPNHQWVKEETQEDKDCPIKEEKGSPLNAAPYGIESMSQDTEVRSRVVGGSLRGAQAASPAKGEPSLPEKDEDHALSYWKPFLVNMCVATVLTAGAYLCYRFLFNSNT

[2] = target: RAC-alpha serine/threonine-protein kinase (Homo sapiens) (UniProt P31749); test: Activation of AKT in human Huh7 cells assessed as increase in insulin-stimulated Akt phosphorylation preincubated for 1 to 2 hrs followed by insulin addition measured after 5 mins by Western blot method; type: cell-based
[3] = target: T2, Receptor-type tyrosine-protein phosphatase C (Homo sapiens, UniProt P08575); test: Inhibition of human recombinant CD45 using pNPP as substrate preincubated for 10 mins followed by substrate addition measured after 30 mins
T2 sequence (P08575 whole entry): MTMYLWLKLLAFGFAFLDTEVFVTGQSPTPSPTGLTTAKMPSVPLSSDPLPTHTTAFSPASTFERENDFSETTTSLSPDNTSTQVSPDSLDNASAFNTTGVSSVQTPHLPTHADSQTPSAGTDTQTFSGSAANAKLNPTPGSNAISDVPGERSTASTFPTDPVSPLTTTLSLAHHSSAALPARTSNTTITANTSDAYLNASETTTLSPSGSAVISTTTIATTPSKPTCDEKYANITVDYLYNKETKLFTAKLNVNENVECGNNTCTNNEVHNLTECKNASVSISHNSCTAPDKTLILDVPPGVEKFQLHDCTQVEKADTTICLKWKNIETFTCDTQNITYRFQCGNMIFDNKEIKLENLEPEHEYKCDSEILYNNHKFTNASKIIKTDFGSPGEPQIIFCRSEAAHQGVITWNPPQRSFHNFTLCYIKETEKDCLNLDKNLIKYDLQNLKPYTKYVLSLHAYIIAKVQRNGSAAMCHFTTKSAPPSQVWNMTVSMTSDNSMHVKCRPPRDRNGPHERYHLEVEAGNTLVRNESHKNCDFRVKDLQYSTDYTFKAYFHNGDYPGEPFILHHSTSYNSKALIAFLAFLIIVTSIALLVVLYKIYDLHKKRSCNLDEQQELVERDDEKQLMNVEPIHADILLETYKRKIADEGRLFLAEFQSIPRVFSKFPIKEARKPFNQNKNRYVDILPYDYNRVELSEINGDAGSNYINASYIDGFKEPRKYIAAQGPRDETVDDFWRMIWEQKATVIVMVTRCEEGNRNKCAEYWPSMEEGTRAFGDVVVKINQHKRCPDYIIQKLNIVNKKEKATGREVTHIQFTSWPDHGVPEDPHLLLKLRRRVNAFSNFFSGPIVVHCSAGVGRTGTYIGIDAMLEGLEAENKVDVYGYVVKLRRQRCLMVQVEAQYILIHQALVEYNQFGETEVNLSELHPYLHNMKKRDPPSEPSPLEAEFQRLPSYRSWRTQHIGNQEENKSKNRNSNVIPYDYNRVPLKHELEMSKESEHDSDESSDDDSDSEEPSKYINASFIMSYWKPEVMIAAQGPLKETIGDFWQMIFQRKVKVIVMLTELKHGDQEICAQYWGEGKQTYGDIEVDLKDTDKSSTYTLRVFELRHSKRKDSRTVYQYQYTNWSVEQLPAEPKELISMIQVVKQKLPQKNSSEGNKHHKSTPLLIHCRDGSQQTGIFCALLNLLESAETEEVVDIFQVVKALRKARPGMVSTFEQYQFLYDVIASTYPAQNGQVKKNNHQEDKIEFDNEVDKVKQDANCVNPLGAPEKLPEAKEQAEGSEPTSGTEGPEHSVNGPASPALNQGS

[4] = target: RAC-alpha serine/threonine-protein kinase (Homo sapiens) (UniProt P31749); test: Induction of Akt phosphorylation in human Huh7 cells measured after 2 hrs by Western blot method; type: cell-based
[5] = target: RAC-alpha serine/threonine-protein kinase (Homo sapiens) (UniProt P31749); test: Induction of Akt phosphorylation in human Huh7 cells up to 50 uM measured after 2 hrs by Western blot method; type: cell-based
[6] = target: Dual specificity protein phosphatase 3 (Homo sapiens, UniProt P51452); test: Inhibition of human recombinant VHR expressed in Escherichia coli using pNPP as substrate preincubated for 10 mins followed by substrate addition measured after 30 mins
[7] = target: T3, Tyrosine-protein phosphatase non-receptor type 2 (Homo sapiens, UniProt P17706); test: Inhibition of human recombinant TCPTP (1 to 317 residues) expressed in Escherichia coli using pNPP as substrate preincubated for 10 mins followed by substrate addition measured after 30 mins
T3 sequence (P17706 whole entry): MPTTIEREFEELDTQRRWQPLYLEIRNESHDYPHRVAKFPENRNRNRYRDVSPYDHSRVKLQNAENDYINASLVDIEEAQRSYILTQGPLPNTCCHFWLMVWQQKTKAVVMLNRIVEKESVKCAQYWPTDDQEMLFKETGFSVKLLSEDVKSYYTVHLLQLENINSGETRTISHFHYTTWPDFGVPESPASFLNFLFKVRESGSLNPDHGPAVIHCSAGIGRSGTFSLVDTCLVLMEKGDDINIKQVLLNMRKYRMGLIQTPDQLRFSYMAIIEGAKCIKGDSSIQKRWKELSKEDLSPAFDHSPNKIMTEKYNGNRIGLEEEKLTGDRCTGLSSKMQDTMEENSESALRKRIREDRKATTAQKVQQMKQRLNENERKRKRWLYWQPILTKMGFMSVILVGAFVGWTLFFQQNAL

[8] = target: T4, Tyrosine-protein phosphatase non-receptor type 1 (Homo sapiens) (UniProt P18031); test: Inhibition of PTP1B in human Huh7 cells assessed as increase in insulin-stimulated Akt phosphorylation preincubated for 1 to 2 hrs followed by insulin addition measured after 5 mins by Western blot method; type: cell-based
T4 sequence (whole entry): T1 sequence (P18031 whole entry)

Sequence of RAC-alpha serine/threonine-protein kinase (Homo sapiens) (P31749 whole entry): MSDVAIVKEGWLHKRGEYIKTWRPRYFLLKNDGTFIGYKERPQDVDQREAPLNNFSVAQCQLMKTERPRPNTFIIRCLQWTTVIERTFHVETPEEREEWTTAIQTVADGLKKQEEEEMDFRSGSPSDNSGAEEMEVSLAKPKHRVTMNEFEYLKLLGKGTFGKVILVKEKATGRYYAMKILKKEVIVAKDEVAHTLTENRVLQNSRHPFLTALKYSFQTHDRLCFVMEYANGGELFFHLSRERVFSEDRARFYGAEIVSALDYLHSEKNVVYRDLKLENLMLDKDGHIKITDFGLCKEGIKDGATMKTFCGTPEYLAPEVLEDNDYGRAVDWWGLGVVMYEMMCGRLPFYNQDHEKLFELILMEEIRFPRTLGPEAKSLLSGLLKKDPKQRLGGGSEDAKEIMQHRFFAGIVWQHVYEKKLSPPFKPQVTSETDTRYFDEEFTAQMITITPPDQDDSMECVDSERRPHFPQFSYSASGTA
Sequence of Dual specificity protein phosphatase 3 (P51452 whole entry, the tested form may be a part): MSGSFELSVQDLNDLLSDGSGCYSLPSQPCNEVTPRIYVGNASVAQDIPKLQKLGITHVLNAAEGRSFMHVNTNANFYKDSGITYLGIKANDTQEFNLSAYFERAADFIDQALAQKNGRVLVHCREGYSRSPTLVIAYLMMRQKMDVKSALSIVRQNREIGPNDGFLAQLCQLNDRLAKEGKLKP

| IC50 [1] [µM] | Activity [2] | IC50 [3] [µM] | Activity [4] | Activity [5] | IC50 [6] [µM] | IC50 [7] [µM] | inhibition [8] | Compound |
| --- | --- | --- | --- | --- | --- | --- | --- | --- |
| > 19 | Dose-dependent effect | > 19 | Dose-dependent effect | inactive | > 19 | > 19 | – | C/C(=C\Cn1c[n+](C)c2ncnc(N)c21)CC[C@]1(C)[C@@H](C)CC[C@@]2(C)C(COC(=O)c3ccc[nH]3)=CCC[C@@H]12 |
| – | – | – | Dose-dependent effect | inactive | – | – | Dose-dependent effect | C/C(=C\Cn1c[n+](C)c2ncnc(N)c21)CC[C@]1(C)[C@@H](C)CC[C@@]2(C)C(COC(=O)c3cc(Br)c[nH]3)=CCC[C@@H]12 |
| 15 | – | > 16 | – | – | 13 | > 16 | – | C/C(=C\C[n+]1cn(C)c2ncnc(N)c21)CC[C@]1(C)[C@@H](C)CC[C@@]2(C)C(COC(=O)c3cc(Br)c[nH]3)=CCC[C@@H]12 |
